In one data set the target is CYP3A4 (Homo sapiens (Human), UniProt P08684). Kind of data set: Time-dependent inhibition of CYP3A4 (TDI assay, human liver microsomes). It counts as in vitro ADME. Particulars: for CYP3A4 TDI % @ 10 μM: human liver microsomes, Midazolam substrate, 30 min with NADPH vs 0 min; for time-dependent inhibition on CYP3A4 (conclusion): conclusion drawn from Table 3, 10 μM. An outline of the steps: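 Human liver microsomes (final 1 mg/mL) preincubated with test compound for 0 min without NADPH or 30 min with NADPH in 100 mM K-phosphate pH 7.4, 37 °C. Aliquot then diluted into midazolam substrate plus NADPH and incubated 15 min at 37 °C. Quenched with acetonitrile; metabolite read by LC-MS/MS.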
On the technique in general: Liver microsomes are vesicles of endoplasmic reticulum, rich in cytochrome P450 enzymes.

Another data set deals with Autotaxin (ATX) (Homo sapiens (Human), UniProt Q13822). Kind of data set: ATX bioactivity assay (Amplex Red / choline oxidase / HRP fluorescence, LPC 16:0 substrate). Type of data set: biochemical. The note with it: 30 min room temperature.
For the next data set, the system named is LPA18:2 in mouse plasma. Put plainly: Inhibition of LPA in mouse plasma (plasma LPA18:2 assay, LC-MS/MS). Type of data set: biochemical, CD1 mice. Particulars: fresh CD1 mouse plasma, LPA18:2, 37° C. for 120 min. The protocol: Effect Example 2. Inhibition of LPA in Mouse Plasma by Compounds
20 mM stock solutions of the compounds were prepared with DMSO and then diluted to 1 mM, which was subjected to a serial 3-fold dilution to yield 10 working solutions.
Collection of Fresh Mouse Plasma:
CD1 mice were euthanized by CO2 inhalation. Approximately 1 mL of whole blood was taken by cardiac puncture, with EDTA-K2 for anticoagulation. The blood was centrifuged at 3220 g for 10 min at 4° C. for plasma collection.
Reactions were performed in a 96-well plate, and the samples were tested in duplicate. 1 μL of each working solution was added to 100 μL of plasma, with the final concentrations of […]. 1 μL of DMSO was added to plasma to serve as blank. The samples were incubated in a water bath at 37° C. for 120 min, and 600 μL of 10 μM tolbutamide in methanol was added to terminate the reaction. Tolbutamide also served as an internal standard. After 5 min of vortex mixing, the samples were centrifuged at 3220 g for 45 min at 4° C. to precipitate the protein. 100 μL of the supernatant was transferred to a new plate, diluted with water based on LC-MS response and peak shapes, mixed well and analyzed by LC-MS/MS.
LPA18:2 was quantified using peak area ratio (LPA18:2/internal standard), requiring no standard curve. For test compounds of different concentrations, LPA data was represented by a percentage decrease of LPA: 100-[((LPA peak area ratio of compound)/(LPA peak area ratio of control))×100]. IC50 was calculated using Graphpad Prism 6.0 software.

Each structure is given as a SMILES string.

Chain of CYP3A4 (P08684 whole entry): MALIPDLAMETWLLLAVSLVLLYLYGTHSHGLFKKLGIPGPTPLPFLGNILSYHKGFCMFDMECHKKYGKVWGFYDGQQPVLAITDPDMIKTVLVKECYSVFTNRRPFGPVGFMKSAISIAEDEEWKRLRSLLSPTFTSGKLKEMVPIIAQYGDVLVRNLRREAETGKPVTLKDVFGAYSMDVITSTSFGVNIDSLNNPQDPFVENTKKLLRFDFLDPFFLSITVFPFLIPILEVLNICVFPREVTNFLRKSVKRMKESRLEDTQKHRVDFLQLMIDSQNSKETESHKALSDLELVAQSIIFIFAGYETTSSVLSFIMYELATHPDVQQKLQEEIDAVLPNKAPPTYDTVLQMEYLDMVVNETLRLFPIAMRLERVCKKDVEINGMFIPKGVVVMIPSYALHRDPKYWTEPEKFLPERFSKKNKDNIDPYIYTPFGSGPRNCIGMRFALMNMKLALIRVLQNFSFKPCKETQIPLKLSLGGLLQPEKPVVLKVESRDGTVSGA

In the case of `CCc1sc2ccc(N3CCN(CC(=O)N4CC(O)C4)CC3)nc2c1N(C)c1nc(-c2ccc(F)cc2)c(C#N)s1` [Compound S-0129, 2-((2-ethyl-5-(4-(2-(3-hydroxyazetidin-1-yl)-2-oxoethyl)piperazin-1-yl)thieno[3,2-b]pyridin-3-yl)(methyl)amino)-4-(4-fluorophenyl)thiazole-5-carbonitrile], on CYP3A4, the “CYP3A4 TDI % @ 10 μM” value was determined as 14.42%. Besides, on CYP3A4, the “time-dependent inhibition on CYP3A4 (conclusion)” value (“time-dependent inhibition” for short) is given as “no time-dependent inhibition on CYP3A4”. In addition, the results for the half-maximal inhibitory concentration (IC50) at Autotaxin (ATX) and in the data set with LPA18:2 in mouse plasma were 0.264 µM and 0.268 µM, respectively.
The like results for `CCn1nc2ccc(N3CCN(CC(=O)N4CC(O)C4)CC3)nc2c1N(C)c1nc(-c2ccc(F)cc2)c(C#N)s1` [Compound S-0094, 2-((2-ethyl-5-(4-(2-(3-hydroxyazetidin-1-yl)-2-oxoethyl)piperazin-1-yl)-2H-pyrazolo[4,3-b]pyridin-3-yl)(methyl)amino)-4-(4-fluorophenyl) thiazole-5-carbonitrile] were, in that order, 20.88%, “no time-dependent inhibition on CYP3A4”, 0.023 µM and 0.013 µM.
For the molecule `CCN(c1nc(-c2ccc(F)cc2)c(C#N)s1)c1c2nc(N3CCN(CC(=O)N4CC(O)C4)CC3)ccc2nn1CC` [Compound S-0117, 2-(ethyl(2-ethyl-5-(4-(2-(3-hydroxyazetidin-1-yl)-2-oxoethyl)piperazin-1-yl)-2H-pyrazolo[4,3-b]pyridin-3-yl)amino)-4-(4-fluorophenyl)thiazole-5-carbonitrile], on CYP3A4, the “CYP3A4 TDI % @ 10 μM” value stood at 15.2% and the “time-dependent inhibition” value was “no time-dependent inhibition on CYP3A4”. The half-inhibitory concentration (IC50) (usually the point on the concentration scale where inhibition reaches its midpoint) against Autotaxin (ATX) was 0.012 µM. Moreover, half-maximal inhibition in the data set on LPA18:2 in mouse plasma (IC50) required 0.038 µM.
The like results for `CCN(c1nc(-c2ccc(F)cc2)c(C#N)s1)c1c2cc(N3CCN(CC(=O)N4CC(O)C4)CC3C(F)(F)F)cc(F)c2nn1CC` (single isomer, unassigned) [Compound S-0134B, 2-(ethyl (2-ethyl-7-fluoro-5-(4-(2-(3-hydroxyazetidin-1-yl)-2-oxoethyl)-2-(trifluoromethyl)piperazin-1-yl)-2H-indazol-3-yl)amino)-4-(4-fluorophenyl)thiazole-5-carbonitrile] were, in that order, 41.82%, “weak time-dependent inhibition on CYP3A4”, 0.011 µM and 0.098 µM.
Consider `CCc1oc2ccc(N3CCN(CC(=O)N4CC(O)C4)CC3)nc2c1N(C)c1nc(-c2ccc(F)cc2)c(C#N)s1` [Compound S-0097, 2-((2-ethyl-5-(4-(2-(3-hydroxyazetidin-1-yl)-2-oxoethyl)piperazin-1-yl)furo[3,2-b]pyridin-3-yl)(methyl)amino)-4-(4-fluorophenyl)thiazole-5-carbonitrile], for which, at CYP3A4, the “CYP3A4 TDI % @ 10 μM” value was determined as 12.51% and the “time-dependent inhibition” value is “no time-dependent inhibition on CYP3A4”. In addition, the half-inhibitory concentration (IC50) against Autotaxin (ATX) came to 0.16 µM. Moreover, in the data set with LPA18:2 in mouse plasma, the IC50 stood at 0.16 µM.
Turning to `CCn1nc2c(C)cc(N3CCN(CC(=O)N4CC(O)C4)CC3)nc2c1N(C)c1nc(-c2ccc(F)cc2)c(C#N)s1` [Compound S-0095, 2-((2-ethyl-5-(4-(2-(3-hydroxyazetidin-1-yl)-2-oxoethyl)piperazine-1-yl)-7-methyl-2H-pyrazolo[4,3-b]pyridin-3-yl)(methyl)amino)-4-(4-fluorophenyl)thiazole-5-carbonitrile], at CYP3A4, the “CYP3A4 TDI % @ 10 μM” value was 2.91% and the “time-dependent inhibition” value is given as “no time-dependent inhibition on CYP3A4”. This molecule also displayed a concentration for half-maximal inhibition (IC50) on Autotaxin (ATX) of 0.119 µM. In the data set on LPA18:2 in mouse plasma, the IC50 amounted to 0.309 µM.
The like results for `CCc1oc2ccc(N3CCN(CC(=O)N4CC(O)C4)CC3)nc2c1N(CC)c1nc(-c2ccc(F)cc2)c(C#N)s1` [Compound S-0105CP, 2-(ethyl(2-ethyl-5-(4-(2-(3-hydroxyazetidin-1-yl)-2-oxoethyl)piperazin-1-yl)furo[3,2-b]pyridin-3-yl)amino)-4-(4-fluorophenyl)thiazole-5-carbonitrile] were, in that order, 0%, “no time-dependent inhibition on CYP3A4”, 0.049 µM and 0.111 µM.
The like results for `CCc1c(N(C)c2nc(-c3ccc(F)cc3)c(C#N)s2)c2nc(N3CCN(CC(=O)N4CC(O)C4)CC3)ccc2n1C` [Compound S-0128, 2-((2-ethyl-5-(4-(2-(3-hydroxyazetidin-1-yl)-2-oxoethyl)piperazin-1-yl)-1-methyl-1H-pyrrolo[3,2-b]pyridin-3-yl)(methyl)amino)-4-(4-fluorophenyl)thiazole-5-carbonitrile] were, in that order, 33.64%, “weak time-dependent inhibition on CYP3A4”, 0.142 µM and 0.057 µM.

(Values after US11591342B2, “Heterocyclic compound, application thereof and pharmaceutical composition comprising same” (SUZHOU SINOVENT PHARMACEUTICALS CO., LTD., priority 2018, dated 2023).)
